Measurements published in paper PMC7617978, “Anti-trypanosomal quinazolines targeting lysyl-tRNA synthetases show partial efficacy in a mouse model of acute Chagas disease” (Science translational medicine, 2025).

Assays:
[1] = DMU759 exposure in mice after oral dosing; format: in vivo; conditions: 50 mg/kg oral
Experimental: DMU759 (50 mg/kg) was orally administered to BALB/c mice. The dose solution was prepared on the day of dosing, and the vehicle was 0.5% (w/v) hydroxypropyl methylcellulose and 0.4% […]. Blood samples (10 μl) were collected from the tail vein of each animal at defined intervals then placed into 1.2 mL cryovials containing deionized water (90 μl) and stored at −80°C until analysis. Blood levels of DMU759 in mouse blood were determined by UPLC-MS/MS, as previously described ([58]).

[2] = test system: T. cruzi CL Brener strain; experiment: Bioluminescent mouse model of acute T. cruzi infection; format: in vivo, BALB/c mice; conditions: 50 mg/kg BID oral, 5 days, from 10 days post-infection, bioluminescence imaging
Experimental: Female BALB/c mice (aged 6-7 weeks), purchased from Charles River (UK), were maintained under specific pathogen-free conditions in individually ventilated cages, with a 12 h light/dark cycle. They had access to food and water ad libitum. Mice were infected by intraperitoneal injection (i.p) of 1x10^3 bloodstream trypomastigotes derived from CB17 SCID mouse blood.
Compounds were prepared in 5% (v/v) dimethyl sulfoxide /95% HPMC suspension vehicle (0.5% (w/v) hydroxypropyl methylcellulose, 0.5% (v/v) benzyl alcohol, 0.4% (v/v) Tween 80 in Milli-Q water). Mice were treated as outlined in Fig. 5, with compounds administered by oral gavage. At different days after infection, mice were injected with d-luciferin (150 mg/kg) i.p., anaesthetized using 2.5% (v/v) gaseous isoflurane and imaged using an IVIS Spectrum (Revvity, Hopkinton, MA, USA) 5-10 min later. To estimate parasite burden, mice ventral and dorsal regions of interest were drawn using Living Image 4.7.3 to quantify bioluminescence expressed as total flux (photons/second; p/s). Regions of interest data from infected and not-infected mice were used as controls. Exposure times varied between 30 sec and 5 min, depending on the signal intensity.

[3] = Plasma protein binding; format: in vitro ADME; conditions: read-out: bound to plasma proteins (converted)
Experimental: The propensity of DMU759 to bind to plasma proteins was determined as previously described ([21]).

[4] = target: CYP3A4 (Homo sapiens, UniProt P08684); experiment: In vitro CYP inhibition, 3A4; format: in vitro ADME
Chain of CYP3A4 (P08684 whole entry, canonical isoform): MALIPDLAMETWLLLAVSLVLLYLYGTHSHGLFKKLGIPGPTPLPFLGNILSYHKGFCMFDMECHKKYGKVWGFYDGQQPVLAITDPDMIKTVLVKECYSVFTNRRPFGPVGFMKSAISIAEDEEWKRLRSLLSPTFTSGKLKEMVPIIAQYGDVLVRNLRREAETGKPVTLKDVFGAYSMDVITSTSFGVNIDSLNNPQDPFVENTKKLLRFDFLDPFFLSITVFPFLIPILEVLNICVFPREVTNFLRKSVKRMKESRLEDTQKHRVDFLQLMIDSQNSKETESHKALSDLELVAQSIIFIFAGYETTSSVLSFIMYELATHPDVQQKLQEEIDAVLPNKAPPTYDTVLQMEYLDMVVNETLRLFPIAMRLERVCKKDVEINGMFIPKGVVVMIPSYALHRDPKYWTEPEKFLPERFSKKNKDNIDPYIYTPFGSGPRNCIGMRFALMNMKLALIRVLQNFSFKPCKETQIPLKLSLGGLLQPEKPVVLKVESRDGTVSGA
Experimental: Compounds were screened for CYP inhibition activity using the protocol established by TCG Lifesciences (India). The activity of five CYP450 isoforms: 1A2; 2C9; 2D6, 3A4; and 2C19 was monitored in the presence of test or control (miconazole) compounds at 10 µM. Reactions were terminated after 10 min (30 min for CYP2C19) by the addition of acetonitrile, centrifuged and analysed via LC-MS/MS. […]

## Cc1nc(N)c2c(F)c(F)c(SC3CCCCC3)c(F)c2n1 [DMU759, 7-(Cyclohexylthio)-5,6,8-trifluoro-2-methylquinazolin-4-amine]
[1]; corrected for plasma protein binding, in words
  free blood concentration versus EC99: did not exceed the established EC99
[1]; post dosing
  time of peak blood concentration: one
  time total blood concentrations exceeded EC99: up to 4 hours
[2]
  reduction of parasite burden (parasitemia): up to 81%
[3]
  fraction unbound: 0.11
[4]
  inhibition at 10 min, 10 µM: 0%
